Data from paper PMC10388311, “Innovative Strategy toward Mutant CFTR Rescue in Cystic Fibrosis: Design and Synthesis of Thiadiazole Inhibitors of the E3 Ligase RNF5” (Journal of Medicinal Chemistry, 2023).
“Also recorded” adds a separate entry of the source.

Legend:
[1] = biological target: T1, recombinant RNF5 (1–117) protein (Homo sapiens, UniProt Q99942); assay: WaterLOGSY and STD NMR binding experiments; conditions: compound 50 μM, 3 μM RNF5 (1–117)
T1 construct: human RNF5 protein (aa 1–117) truncated to exclude the transmembrane domains; GST (followed by TEV protease site) (N, cleaved yes); host or cells: Escherichia coli BL21(DE3)
Source text: The bindings of compounds 12, 40, and 42 were initially evaluated by MicroScale Thermophoresis (MST) using a purified recombinant truncated form of RNF5 (aa 1–117), lacking the C-terminal transmembrane domains. The protein was covalently labeled with a red dye (NHS) on the primary amines (lysine residues). […] NMR experiments on the recombinant RNF5 form were further performed to test the direct binding of the three compounds to the protein with a more sensitive, label-free, independent approach. Analogs 12, 40, and 42 were tested at 50 μM in the absence and in the presence of 3 μM RNF5 (1–117) protein. […] Indeed, for all three compounds, the NMR signals of their methyls are present in the STD spectra, and in the WaterLOGSY spectra, their signals change from negative to positive in the presence of the protein, indisputably highlighting the formation of compound–protein binding events. […] It has to be noted that NMR is a very sensitive technique that allows detecting also compounds weakly binding to their target protein independent of the possible downstream biological effects. […]
All the NMR experiments were recorded at 298 K using a 5 mm CryoProbe QCI ^1H/^19F–^13C/^15N–D quadruple resonance, a shielded z-gradient coil, and an automatic sample changer SampleJet NMR system with temperature control. […] For all samples, a 1D ^1H NMR experiment was recorded, the water suppression was obtained using the standard NOESY (nuclear Overhauser effect spectroscopy) preset Bruker pulse sequence, with 64k data points, a spectral width (sw) of 30 ppm, 64 scans, acquisition time (aq) of 1.835 s, a relaxation delay (d1) of 4 s, and a mixing time of 10 ms. […] WaterLOGSY experiments were recorded with the same parameters used in solubility assays, but with a higher number of scans (512); STD experiments were recorded with 128 scans, with two on (0.7 and 1 ppm) and one off (−50 ppm) resonance spectra, a Gaussian-shaped train pulse of 50 ms each was employed, with a total saturation time of the protein envelope of 5, 3, 2, 1.5, 1, or 0.5 s. […]

[2] = test system: ATG4B-mediated basal autophagy in F508del-CFTR-expressing CFBE41o– cells; assay: Labeling of autophagic vacuoles with monodansylcadaverine (MDC); type: cell-based, human; conditions: test compounds 5 μM 24 h; torin-1 20 nM and SAR-405 2 μM in the last 3 h
Source text: To further support our hypothesis that CFTR rescue following treatment with test compounds was indeed due to RNF5 inhibition, we considered additional biological processes known to be regulated by RNF5 ligase activity. To this aim, we focused our attention on ATG4B, a known regulator of basal autophagy, whose degradation is mediated by RNF5 activity.[54]In vivo ubiquitination experiments previously confirmed that inh-2 inhibits ATG4B degradation, thus increasing the basal level of autophagy.[40] […] We thus evaluated the effect of inh-2 analogues on induction of the autophagy pathway. To this aim, we monitored the formation of autophagic vacuoles in F508del-CFTR-expressing CFBE41o^– cells (Figure 8) by using the autolysosome marker monodansylcadaverine (MDC). MDC accumulates inside autophagosomes. After fusion of autophagosomes with lysosomes, MDC fluorescence increases due to the acidic environment.[55] Therefore, F508del-CFTR-expressing CFBE41o^– cells were treated for 24 h with test compounds (5 μM), VX-809 (1 μM), or DMSO alone (vehicle). In the last 3 h of incubation, we added torin-1 (20 nM), a known autophagy inducer, and SAR-405 (2 μM), a potent inhibitor of the autophagic pathway. The cells were then loaded with MDC and evaluated by high-content confocal imaging to detect signal spots (corresponding to autophagic vacuoles) in each cell.
CFBE41o^– cells stably expressing F508del-CFTR and the HS-YFP were plated (50,000 cells/well) on good-quality clear-bottom 96-well black microplates suitable for high-content imaging. After 24 h, cells were treated with test compounds or DMSO (as the negative control). […] After 24 h, cells were incubated with 50 μM MDC (Sigma-Aldrich) in PBS at 37 °C for 10 min.[62] After incubation, cells were washed three times with PBS and immediately analyzed. High-content imaging and data analysis were performed using the Opera Phenix (PerkinElmer) high-content screening system. Wells were imaged in confocal mode using a 40× water-immersion objective. The MDC signal was laser-excited at 405 nm, and the emission wavelengths were collected between 435 and 550 nm. Data analysis of MDC spot number was performed using the Harmony software (ver 4.5) of the Opera Phenix high-content system. Data are expressed as means ± SEM, n = 3 independent experiments. Statistical significance was tested by parametric ANOVA followed by the Dunnet multiple comparisons test (all groups against the control group).

T1 sequence (Q99942 1-117): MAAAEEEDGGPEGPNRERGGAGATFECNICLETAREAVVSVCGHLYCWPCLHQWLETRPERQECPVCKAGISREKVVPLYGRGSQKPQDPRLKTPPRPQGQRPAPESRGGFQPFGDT

SMILES	binding to RNF5 by WaterLOGSY and STD NMR [1]	number of autophagic vacuoles (MDC signal spots) [2]
COc1cccc(Cn2c(C)ns/c2=N\C(=N\c2ccccc2)c2ccccc2)c1 [Compound 16, (E)-N-((Z)-4-(3-Methoxybenzyl)-3-methyl-1,2,4-thiadiazol-5(4H)-ylidene)-N′-phenylbenzimidamide]	–	significantly increased; also recorded: strong activation of basal autophagy
Cc1ns/c(=N\c2ccccn2)n1Cc1ccccc1 [Compound 42, (Z)-4-Benzyl-3-methyl-N-(pyridin-2-yl)-1,2,4-thiadiazol-5(4H)-imine]	bind the recombinant RNF5 protein	–
Cc1ns/c(=N\C(=N\c2ccccc2)c2ccccc2)n1Cc1ccccc1 [inh-2, reference compound]	–	significantly increased

Further lines, with some results ahead:

binding to RNF5 by WaterLOGSY and STD NMR [1]	SMILES	number of autophagic vacuoles (MDC signal spots) [2]
bind the recombinant RNF5 protein	Cc1ns/c(=N\C(=N\c2ccccc2)c2ccccc2)n1Cc1ccc(C(=O)O)cc1 [Compound 12, 4-(((Z)-3-Methyl-5-(((E)-phenyl(phenylimino)methyl)imino)-1,2,4-thiadiazol-4(5H)-yl)methyl)benzoic Acid]	–
bind the recombinant RNF5 protein	Cc1ns/c(=N\C(=N\c2ccncc2)c2ccccc2)n1Cc1ccccc1 [Compound 40, (E)-N-((Z)-4-Benzyl-3-methyl-1,2,4-thiadiazol-5(4H)-ylidene)-N′-(pyridin-4-yl)benzimidamide]	–
